These results are taken from patent publication US20250188032A1, “NITROGEN-CONTAINING HETEROCYCLIC COMPOUNDS AND USES THEREOF” (BNH RESEARCH CO., LTD., priority 2022, published 2025).

In one data set the test system is 293T cells. In words: Cytotoxicity test (CCK-8 cell viability) in 293T cells. In kind it is cell-based, human. Particulars: 24 hours co-incubation, 293T cell line, % of control. How it is done: Human undifferentiated neuroblastoma cell line SH-SY5Y and human embryonic kidney cell line (HEK)-293T were purchased from Korean Cell Line Bank (Korea) and Takara (Japan), respectively. Cells were grown in HyClone Minimal Essential Medium (MEM) and Dulbecco's Modified Eagle Medium (DMEM), respectively, supplemented with 10% (v/v) fetal bovine serum (FBS), penicillin (100 U/mL), and streptomycin ([…]). Cells were maintained in a humidified atmosphere of 95% air and 5% CO2 at 37° C. Cells were passaged 10 times at maximum. Cells were dissociated using 0.05% trypsin-EDTA solution and the cells were seeded in new culture dishes for maintenance.
To examine the cytotoxicity of compounds described herein in human cell lines, SH-SY5Y and 293T cells were used. Approximately 8,000 cells (for 293T) and 15,000 cells (for SH-SY5Y) were plated per well of a 96-well plate (SPL Life Sciences Co., Ltd., Pocheon, Korea). After incubating at 37° C. for 24 hours in a humidified atmosphere containing 5% CO2, the culture medium was replaced by a series of concentrations of test compounds diluted in the corresponding culture medium. The time of co-incubation was 24 hours and six replicates were made for each measurement. Finally, 10 μL of CCK-8 reagent (Dojindo Laboratories, Rockville, MD) was added to each well, and after incubation at 37° C. for 3 minutes, the OD at 450 nm was measured using a multifunction microplate reader (Tecan Infinite M200 Pro). These measurements were compared to that of a control and expressed as a percentage of the control to calculate cell viability. The IC50 value was calculated using SPSS software. To do this, the absorbance of the blank wells with only growth medium is subtracted from the values or the wells with cells. The readout value of background (vehicle) was set as a 100% viability, and then the percent viability for each test solution was calculated.
Cell viability (%)=[(As-Ab)/(Ac-Ab)]×100
The data was presented as the mean value and standard error of the mean (S.E.M.). Statistical analysis was performed with the one-way ANOVA with Tukey's post hoc test (GraphPad Prism 5 software package, version 5.02, GraphPad Software Inc. USA). Significance was accepted at p<0.05.

In another data set the test system is GluN2B. In words: Western blot of GluN2B protein in cultured fetal cortical cells. In kind it is cell-based, mice. Particulars: for GluN2B expression, Western blot results, Mean: relative value, vehicle set to 1, treated for 24 hours, N 3 or more; for Effect on GluN2B expression compared to the vehicle: comment on Table 6. The procedure: The amount of GluN2B reacted with the compound of the present disclosure was measured using Western blot. The fetal cerebral cortex was extracted from mice at 17 days of gestation, dissociated into single cells, cultured for 13 days, and treated with BnH drugs for 24 hours. The drug-treated cells were subjected to protein lysate preparation using RIPA protein lysis buffer containing protease and phosphatase inhibitors. The protein concentration was determined using a BCA protein assay kit (Pierce Biotechnology) using bovine serum albumin as a standard. Equal amounts of protein (20 μg per lane) were separated by electrophoresis on SDS-polyacrylamide gels at 90 V for 2 hours, then transferred from the SDS-polyacrylamide gel to PVDF membrane at 100 V for 1 hour. Then, primary reaction with GluN2B antibody (ab65783, Abcam) was performed at 4° C. for 1 day, washed three times at 10-minutes intervals with 1×PBT, and secondary reaction was performed with anti-mouse antibody (sc-2357, Santa Cruz) for 1 hour, followed by washing three times at 10-minutes intervals with 1×PBT. Western blotting was performed as described above to confirm GluN2B protein expression. Subsequently, each blot was re-probed using anti-β-actin antibody (sc-47778, Santa Cruz). Housekeeping protein β-actin was detected as a normalization control.
The increase and decrease of BnH12 series were confirmed by setting the vehicle to 1 (N for each group was 3 or more).
Using the experimental procedure described in Example 3, it was determined whether various BnH12 series compounds increase GluN2B expression, and the results are shown in Table 6. These in vitro experimental results are expressed as relative values to the group (vehicle) that was not treated with the compound, with the effect of the group set to 1.

Where “and” joins values, the source holds several entries; their conditions need not be identical. Equal entries are not always repeated.

`C[C@H]1CCCCN1C(=O)Cc1ccc(F)cc1Cl` [BnH12005, (S)-2-(2-chloro-4-fluorophenyl)-1-(2-methylpiperidin-1-yl)ethan-1-one]: in the data set with 293T cells, the “Cell viability test results (CCK) 10 uM” value amounted to 99%< and the “Cell viability test results (CCK) 100 uM” value came to 90%<. For the same compound, the “GluN2B expression, Western blot results, Mean” value (“GluN2B expression … Mean” below) in the data set on GluN2B came out at 1.206.
The matching figures for `C[C@H]1CC[C@@H](C(=O)O)CN1C(=O)CC1CCCCC1` [BnH12006, (3R,6S)-1-(2-cyclohexylacetyl)-6-methylpiperidine-3-carboxylic acid]: 99%<, 95%< and 1.238.
Taken in the same sequence, the figures for `C[C@H]1CC[C@@H](C(=O)O)CN1C(=O)Cc1ccccc1` [BnH12007, (3R,6S)-6-methyl-1-(2-phenylacetyl)piperidine-3-carboxylic acid] were 95%<, 95%< and 1.311.
Taken in the same sequence, the figures for `C[C@H]1CC[C@@H](C(=O)NO)CN1C(=O)Cc1ccc(F)cc1Cl` [BnH12009, (3R,6S)-1-(2-(2-chloro-4-fluorophenyl)acetyl)-N-hydroxy-6-methylpiperidine-3-carboxamide] were 95%<, 90%< and 1.248.
Take `C[C@H]1CC[C@@H](C(=O)O)CN1CCc1ccc(F)cc1Cl` [BnH12010, (3R,6S)-1-(2-chloro-4-fluorophenethyl)-6-methylpiperidine-3-carboxylic acid]: the “GluN2B expression … Mean” value with GluN2B worked out at 1.074.
Turning to `O=C(NO)[C@@H]1CCCN1C(=O)Cc1ccc(F)cc1Cl` [BnH12016, (S)-1-(2-(2-chloro-4-fluorophenyl)acetyl)-N-hydroxypyrrolidine-2-carboxamide], in the data set on 293T cells, the “Cell viability test results (CCK) 10 uM” value came out at 99%< and the “Cell viability test results (CCK) 100 uM” value is reported as 90%<. Also, the “GluN2B expression … Mean” value in the data set with GluN2B amounted to 1.311.
As to `O=C(NO)[C@H]1CCCN1C(=O)c1ccccc1` [BnH12018, (R)-1-benzoyl-N-hydroxypyrrolidine-2-carboxamide], in the data set on 293T cells, the “Cell viability test results (CCK) 10 uM” value is listed as 90%< and the “Cell viability test results (CCK) 100 uM” value worked out at 90%<. Moreover, in the data set on GluN2B, the “Effect on GluN2B expression compared to the vehicle” value (from here on “Effect … compared to the vehicle”) is on record as “excellent effects” and the “GluN2B expression … Mean” value is reported as 1.381.
For the compound `COc1ccc(CC(=O)N2C[C@H](C(=O)O)CC[C@@H]2C)cc1` [BnH12025, (3R,6S)-1-(2-(4-methoxyphenyl)acetyl)-6-methylpiperidine-3-carboxylic acid], in the data set with 293T cells, the “Cell viability test results (CCK) 10 uM” value is 90%< and the “Cell viability test results (CCK) 100 uM” value came out at 80%<. For the same compound, in the data set on GluN2B, the “Effect … compared to the vehicle” value was “excellent effects” and the “GluN2B expression … Mean” value is listed as 1.582.
Turning to `C[C@H]1CC[C@@H](C(=O)[O-])CN1C(=O)Cc1cccnc1.[Na+]` [BnH12038, Sodium (3R,6S)-6-methyl-1-(2-(pyridin-3-yl)acetyl)piperidine-3-carboxylate], in the data set with 293T cells, the “Cell viability test results (CCK) 10 uM” value was found to be 85%< and the “Cell viability test results (CCK) 100 uM” value is 85%<. In the data set on GluN2B, the “Effect … compared to the vehicle” value is reported as “excellent effects” and the “GluN2B expression … Mean” value was 1.811.
In the case of `C[C@H]1CC[C@@H](C(=O)[O-])CN1C(=O)Cc1ccccn1.[Na+]` [BnH12039, Sodium (3R,6S)-6-methyl-1-(2-(pyridin-2-yl)acetyl)piperidine-3-carboxylate], in the data set on 293T cells, the “Cell viability test results (CCK) 10 uM” value was 95%< and the “Cell viability test results (CCK) 100 uM” value was found to be 90%<. In addition, in the data set with GluN2B, the “GluN2B expression … Mean” value turned out to be 1.103.
For the compound `C[C@H]1CCCCN1C(=O)Cc1cccnc1` [BnH12060, (S)-1-(2-methylpiperidin-1-yl)-2-(pyridin-3-yl)ethan-1-one], in the data set with 293T cells, the “Cell viability test results (CCK) 10 uM” value is reported as 99%< and the “Cell viability test results (CCK) 100 uM” value worked out at 99%<. Also, in the data set on GluN2B, the “Effect … compared to the vehicle” value was “excellent effects” and the “GluN2B expression … Mean” value turned out to be 1.469.
Regarding `C[C@H]1CCCCN1C(=O)Cc1ccccc1` [BnH12061, (S)-1-(2-methylpiperidin-1-yl)-2-phenylethan-1-one], in the data set on 293T cells, the “Cell viability test results (CCK) 10 uM” value came out at 95%< and the “Cell viability test results (CCK) 100 uM” value was determined as 95%<. Further, in the data set with GluN2B, the “Effect … compared to the vehicle” value was “excellent effects” and the “GluN2B expression … Mean” value came to 1.683.
As for `COc1ccc(CC(=O)N2C[C@@H](C(=O)O)CC[C@H]2C)cc1` [BnH12063, (3S,6R)-1-(2-(4-methoxyphenyl)acetyl)-6-methylpiperidine-3-carboxylic acid], in the data set with 293T cells, the “Cell viability test results (CCK) 10 uM” value is 95%< and the “Cell viability test results (CCK) 100 uM” value came out at 95%<. For the same compound, in the data set with GluN2B, the “Effect … compared to the vehicle” value is on record as “excellent effects” and the “GluN2B expression … Mean” value is recorded as 1.652.
Take `C[C@H]1CC[C@@H](C(=O)O)CN1C(=O)c1ccccc1` [BnH12065, (3R,6S)-1-benzoyl-6-methylpiperidine-3-carboxylic acid]: in the data set with 293T cells, the “Cell viability test results (CCK) 10 uM” value came to 95%< and the “Cell viability test results (CCK) 100 uM” value is 95%<. Further, the “GluN2B expression … Mean” value in the data set on GluN2B was determined as 1.326.
With `C[C@@H]1CC[C@H](C(=O)[O-])CN1C(=O)Cc1cccnc1.[Na+]` [BnH12068, Sodium (3S,6R)-6-methyl-1-(2-(pyridin-3-yl)acetyl)piperidine-3-carboxylate], in the data set with GluN2B, the “GluN2B expression … Mean” value was 1.286.
For `C[C@H]1CC[C@@H](C(=O)O)CN1C(=O)Cc1ccc([N+](=O)[O-])cc1` [BnH12069, (3R,6S)-6-methyl-1-(2-(4-nitrophenyl)acetyl)piperidine-3-carboxylic acid], in the data set with 293T cells, the “Cell viability test results (CCK) 10 uM” value is 95%< and 80%<; the “Cell viability test results (CCK) 100 uM” value was 95%< and 80%<. In addition, in the data set on GluN2B, the “Effect … compared to the vehicle” value is listed as “excellent effects” and the “GluN2B expression … Mean” value is recorded as 1.993.
In the case of `C[C@H]1CC[C@@H](C(=O)O)CN1C(=O)Cc1ccc(N)cc1` [BnH12070, (3R,6S)-1-(2-(4-aminophenyl)acetyl)-6-methylpiperidine-3-carboxylic acid], in the data set with 293T cells, the “Cell viability test results (CCK) 10 uM” value is given as 99%< and the “Cell viability test results (CCK) 100 uM” value was 90%<. The “GluN2B expression … Mean” value in the data set on GluN2B was 1.302.
`C[C@H]1CC[C@@H](C(=O)O)CN1C(=O)Cc1cccc([N+](=O)[O-])c1` [BnH12073, (3R,6S)-6-methyl-1-(2-(3-nitrophenyl)acetyl)piperidine-3-carboxylic acid]: in the data set with 293T cells, the “Cell viability test results (CCK) 10 uM” value came out at 85%< and the “Cell viability test results (CCK) 100 uM” value is recorded as 85%<. Also, in the data set on GluN2B, the “Effect … compared to the vehicle” value was “excellent effects” and the “GluN2B expression … Mean” value is 2.013.
For `C[C@H]1CC[C@@H](C(=O)O)CN1C(=O)Cc1cccc(N)c1` [BnH12074, (3R,6S)-1(2-(3-aminophenyl)acetyl)-6-methylpiperidine-3-carboxylic acid], in the data set with 293T cells, the “Cell viability test results (CCK) 10 uM” value is 85%< and the “Cell viability test results (CCK) 100 uM” value amounted to 80%<. Further, in the data set with GluN2B, the “Effect … compared to the vehicle” value is reported as “excellent effects” and the “GluN2B expression … Mean” value is on record as 2.146.
Take `C[C@H]1CC[C@@H](C(=O)O)CN1C(=O)Cc1ccc(O)cc1` [BnH12079, (3R,6S)-1-(2-(4-hydroxyphenyl)acetyl)-6-methylpiperidine-3-carboxylic acid]: in the data set on 293T cells, the “Cell viability test results (CCK) 10 uM” value turned out to be 99%< and the “Cell viability test results (CCK) 100 uM” value was found to be 90%<. Also, the “GluN2B expression … Mean” value in the data set with GluN2B worked out at 1.062.
